Activity calls are given as the source filed them. The rule behind the calls is not given here.
Target: T1, Kynureninase (Homo sapiens) (UniProt Q16719)
T1 sequence (whole entry): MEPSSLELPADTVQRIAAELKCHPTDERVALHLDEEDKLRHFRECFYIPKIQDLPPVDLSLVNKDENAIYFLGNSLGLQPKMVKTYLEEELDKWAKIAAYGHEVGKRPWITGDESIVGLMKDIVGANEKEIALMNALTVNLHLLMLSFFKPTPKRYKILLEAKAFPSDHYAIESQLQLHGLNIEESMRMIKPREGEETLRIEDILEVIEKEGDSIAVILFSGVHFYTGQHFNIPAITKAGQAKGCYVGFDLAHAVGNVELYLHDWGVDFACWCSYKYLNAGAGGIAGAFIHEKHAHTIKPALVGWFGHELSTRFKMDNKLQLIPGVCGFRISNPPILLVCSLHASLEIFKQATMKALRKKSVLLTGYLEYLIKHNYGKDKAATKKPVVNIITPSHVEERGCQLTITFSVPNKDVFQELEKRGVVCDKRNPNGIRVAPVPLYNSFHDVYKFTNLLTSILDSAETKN
Assay: Inhibition of human kynureninase at 1 mM

Activity	Structure (SMILES)
inactive	Nc1c(O)cccc1C(=O)NCC(=O)O
inactive	O=C(O)CNC(=O)c1ccccc1

Reference: ChEMBL document CHEMBL1139388, “Crystal structure of the Homo sapiens kynureninase-3-hydroxyhippuric acid inhibitor complex: insights into the molecular basis of kynureninase substrate specificity” (J Med Chem, 2009)
